Test results published in paper PMC11645656, “MRGPRX4 mediates phospho-drug associated pruritus in a humanized mouse model” (Science translational medicine, 2024).
“And” between values parts separate entries of the source, which are not always exact repeats. Equal values may be shown once. *1 amine or outer side, *2 acyl side, *3 side chain or, on linkers, in order; H or OH if unused. Where a SMILES comes first, the peptide text is derived from it. Bridges are numbered along the chain shown (N, C = ends). [ ]: non-standard residue; d: D form. X1 = CC(=O)NC(C(=O)OC(C(C)C)C(N[*:1])C(=O)[*:2])C(O)C(C)C; PhLac = O=C(O)[CH](O)Cc1ccccc1; NMeT = CN[CH](C(=O)O)[CH](C)O; NMeA = CN[CH](C)C(=O)O; NMeDha = C=C(NC)C(=O)O

Assays:
[1] = tested on: MRGPRX4-expressing HEK293 cells (Gαq signaling pathway); assay: Pharmacological blocker experiments: phospho-drug evoked calcium response in MRGPRX4-expressing HEK293 cells after inhibitor preincubation; details: 30 min preincubation; 10 µM YM 254890, 20 µM U73122, 10 µM thapsigargin; stimulated with fospropofol, fosphenytoin or dexamethasone phosphate
Protocol: Various HEK293 cell lines were plated on PDL-coated glass coverslips. […] For pharmacological blocker experiments, cells were pre-incubated with signaling pathway inhibitors, including YM254890, U73122, and thapsigargin, for 30 min before imaging.
Traces of [Ca2+] from MRGPRX4-expressing HEK293 cells stimulated with (A) 1 µM
U73122 (middle), or 10 µM sarco/endoplasmic reticulum Ca2+-ATPase inhibitor thapsigargin
(right) for 30 min before imaging.
independent experiments, each performed in quadruplicate.

[2] = molecular target: T1, MRGPRX4 (S83) (Homo sapiens, UniProt Q96LA9, L83S); assay: EC50 determination, intracellular calcium mobilization in MRGPRX4 stably expressed HEK293 cells (FLIPR Calcium 5, Flexstation-3); format: cell-based; parameters: Fig. 1D dose-response, calcium mobilization response (individual replicate) / calcium mobilization response (Fig. 1D dose-response raw data): unit not given here; details: for Hill coefficient: dose-response curve fitting, table S1; for calcium mobilization response (Fig. 1D dose-response raw data): individual replicate values
T1 construct: expressed in transfected cells
T1 sequence (Q96LA9 whole entry L83S): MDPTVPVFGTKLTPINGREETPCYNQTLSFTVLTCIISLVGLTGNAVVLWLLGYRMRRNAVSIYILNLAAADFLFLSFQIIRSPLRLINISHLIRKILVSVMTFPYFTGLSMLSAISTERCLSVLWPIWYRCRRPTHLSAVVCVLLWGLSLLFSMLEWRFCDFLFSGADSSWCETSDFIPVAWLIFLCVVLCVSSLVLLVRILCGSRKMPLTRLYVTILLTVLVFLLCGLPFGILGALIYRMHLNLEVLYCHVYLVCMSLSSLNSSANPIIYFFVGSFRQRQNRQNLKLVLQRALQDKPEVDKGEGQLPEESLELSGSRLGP
Protocol: HEK293 cells and MRGPRX4 stably expressed HEK293 cells were seeded in 100 μl culture media on 96-well plates at a density of 40,000 cells per well and incubated overnight. The next day, the media were replaced with a dye-loading solution from the FLIPR Calcium 5 assay kit (Molecular Devices), diluted in Hank's Balanced Salt Solution (HBSS) with 20 mM HEPES, pH 7.4. After 1 h of incubation at 37°C, cells were allowed to recover for 10 min in the dark at room temperature prior to performing intracellular calcium mobilization assay in a Flexstation-3 instrument with SoftMax®Pro 7.1 software (Molecular Devices). Serial concentrations of tested drugs were prepared in HBSS/HEPES solution at 3X concentration. […] Compounds were tested in triplicates and the signals were averaged. Responses were determined by subtracting the minimum signal (at the baseline before adding the drug) from the maximum signal (obtained after drug stimulation). Four-parameter logistic (4PL) curve fit was used to plot the dose-response curves. […] Both dose-response curve fitting and EC50s calculation are computed with GraphPad Prism software (version: 6.o or above).

Question: How did the “Effect of inhibitor on phospho-drug evoked calcium response” value [1] turn out when `C/C=C(/C)C(=O)O[C@H]1C(C)=C2[C@H]([C@@H]1OC(=O)CCCCCCC)[C@@](C)(OC(C)=O)C[C@H](OC(=O)CCC)[C@@]1(O)[C@H]2OC(=O)[C@@]1(C)O` [thapsigargin] was run?
Answer: The value was “abolished the calcium response”.

Question: How did the “Effect of inhibitor on phospho-drug evoked calcium response” value [1] turn out when `COc1ccc2c(c1)CC[C@@H]1[C@@H]2CC[C@]2(C)[C@@H](NCCCCCCN3C(=O)C=CC3=O)CC[C@@H]12` [U73122] was run?
Answer: Its value is “abolished the calcium response”.

Question: `C=C1C(=O)NC(C)C(=O)N(C)C(C)C(=O)NC(C(OC(=O)C(NC(C)=O)C(O)C(C)C)C(C)C)C(=O)N(C)C(C(C)OC)C(=O)OC(C)C(NC(C)=O)C(=O)OC(Cc2ccccc2)C(=O)N1C` (centres unmarked) [YM-254890] (Ac-T[PhLac][NMeDha]A[NMeA][X1][NMeT](Me); ester 1-C; configuration not given here) was tested. Which “Effect of inhibitor on phospho-drug evoked calcium response” value [1] did it give?
Answer: Its value is “abolished the calcium response”.

Question: What does the source list for Dexamethasone palmitate?
Answer: Fig. 1D dose-response, calcium mobilization response (individual replicate) ([2]; Concentration 9.76563e-7 M): -18.225 and -22.739 and -7.984 and -16.162 and -15.021 and -13.070 and 2.408 and -2.265 and -6.745; Fig. 1D dose-response, calcium mobilization response (individual replicate) ([2]; Concentration 1.95313e-6 M): -6.511 and -7.350 and 3.472 and -4.164 and -15.203 and -5.200 and 2.167 and -2.706 and -6.484; Fig. 1D dose-response, calcium mobilization response (individual replicate) ([2]; Concentration 3.90625e-6 M): -3.747 and 10.479 and -10.773 and -3.912 and -11.558 and -2.335 and 1.476 and 2.520 and -1.305; Fig. 1D dose-response, calcium mobilization response (individual replicate) ([2]; Concentration 7.8125e-6 M): -30.862 and -16.831 and -16.502 and -2.263 and -11.827 and -17.176 and -5.630 and 3.868 and -9.469; Fig. 1D dose-response, calcium mobilization response (individual replicate) ([2]; Concentration 1.5625e-5 M): -23.657 and 30.652 and -26.797 and 1.282 and -0.449 and -0.613 and 8.674 and 6.385 and -0.252; Fig. 1D dose-response, calcium mobilization response (individual replicate) ([2]; Concentration 3.125e-5 M): 88.602 and 69.392 and 95.399 and 41.739 and 60.580 and 65.413 and 42.682 and 17.645 and 71.002; Fig. 1D dose-response, calcium mobilization response (individual replicate) ([2]; Concentration 6.25e-5 M): 155.837 and 167.386 and 158.681 and 72.199 and 72.835 and 105.522 and 59.878 and 78.793 and 128.090; Fig. 1D dose-response, calcium mobilization response (individual replicate) ([2]; Concentration 0.00025 M): 281.902 and 277.911 and 231.255 and 145.042 and 106.318 and 115.112 and 141.417 and 113.731 and 129.258; Fig. 1D dose-response, calcium mobilization response (individual replicate) ([2]; Concentration 0.0005 M): 346.180 and 361.547 and 346.996 and 139.147 and 134.114 and 120.302 and 148.855 and 141.620 and 226.966; Fig. 1D dose-response, calcium mobilization response (individual replicate) ([2]; Concentration 0.001 M): 354.688 and 329.354 and 273.082 and 127.830 and 137.045 and 134.530 and 140.483 and 130.182 and 155.284; Hill coefficient [2]: 1.502

Question: How did the “calcium mobilization response (Fig. 1D dose-response raw data)” value ([2]; concentration 4.88281e-7 M) turn out when `CC[C@]1(c2ccccc2)NC(=O)N(C)C1=O` [(R)-mephenytoin] was run?
Answer: Its value is -28.494 and -0.685 and -28.419 and -1.368 and -39.430 and -16.800 and -4.015 and -27.858 and -25.726.

Question: What about the “calcium mobilization response (Fig. 1D dose-response raw data)” value ([2]; concentration 9.76563e-7 M) of the same compound?
Answer: Its value is -7.288 and -19.217 and -18.327 and -17.700 and -9.222 and -17.910 and -11.024 and -17.403 and -16.404.

Question: And the “calcium mobilization response (Fig. 1D dose-response raw data)” value ([2]; concentration 1.95313e-6 M)?
Answer: The value was -4.806 and -21.809 and -22.673 and -18.368 and -20.701 and -10.218 and -45.398 and -2.556 and -1.333.

Question: What about the “calcium mobilization response (Fig. 1D dose-response raw data)” value ([2]; concentration 3.90625e-6 M) of the same compound?
Answer: The value was -11.313 and -5.626 and -2.810 and -4.150 and -5.388 and -10.211 and -8.758 and -3.374 and -7.616.

Question: What about the “calcium mobilization response (Fig. 1D dose-response raw data)” value ([2]; concentration 7.8125e-6 M) of the same compound?
Answer: Its value is -13.282 and -38.673 and -86.390 and -55.539 and -30.274 and -52.531 and -40.546 and -63.168 and -34.632.

Question: And the “calcium mobilization response (Fig. 1D dose-response raw data)” value ([2]; concentration 1.5625e-5 M)?
Answer: Its value is -73.173 and -60.784 and -5.824 and -52.600 and -25.248 and -61.934 and -57.691 and -23.069 and -59.022.

Question: What about the “calcium mobilization response (Fig. 1D dose-response raw data)” value ([2]; concentration 3.125e-5 M) of the same compound?
Answer: Its value is -77.603 and -4.145 and -51.921 and -55.448 and -9.903 and -68.319 and -36.832 and -68.498 and -28.339.

Question: And the “calcium mobilization response (Fig. 1D dose-response raw data)” value ([2]; concentration 6.25e-5 M)?
Answer: Its value is -22.173 and -48.350 and -3.409 and -11.978 and -30.555 and -31.399 and -12.734 and -38.906 and -22.292.

Question: And the “calcium mobilization response (Fig. 1D dose-response raw data)” value ([2]; concentration 0.00025 M)?
Answer: The value was -56.927 and -11.154 and -10.026 and -28.148 and -45.428 and -4.530 and -28.870 and -12.606 and -36.630.

Question: And the “calcium mobilization response (Fig. 1D dose-response raw data)” value ([2]; concentration 0.0005 M)?
Answer: Its value is -44.336 and -37.065 and -31.962 and -46.134 and -28.961 and -38.269 and -19.967 and -86.384 and -7.013.

Question: `Cn1nnc(-c2ccc(-c3ccc(N4C[C@H](COP(=O)(O)O)OC4=O)cc3F)cn2)n1` [Tedizolid phosphate] was tested. Which EC50 ([2]; MRGPRX4 stably expressed HEK293 cells, calcium mobilization, read-out: EC50) did it give?
Answer: Its EC50 is 157 nM.

Question: What about the Hill coefficient [2] of the same compound?
Answer: The Hill coefficient was 1.352.
